# Reference: US10294202B2, “Pyrrolidinones as herbicides” (FMC Corporation, priority 2013, dated 2019)
# How the values were obtained:
# rice = experiment: Test B flooded paddy test; format: in vivo, Oryza sativa; conditions: 500 g ai/ha, Flood; scale of 0 to 100 where 0 is no effect and 100 is complete control
# In short: (§1)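 Scored visually 0–100 (0 no effect, 100 complete control) versus controls after 13 to 15 greenhouse days. Treatment: compound added to paddy water kept 3 cm above soil, on 2-leaf-stage plants.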
# soybean = experiment: Test C pre-/postemergence herbicide test; format: in vivo, Glycine max
# In short: (§2)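 Plants grown and held in a greenhouse for 13 to 15 days post-spray, then rated 0–100 by visual comparison with controls. Pre treatments targeted seeds in loam and sand; post treatments targeted 1- to 4-leaf plants in peat-based potting medium.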
# ryegrass, Italian = experiment: Test C pre-/postemergence herbicide test; format: in vivo, Lolium multiflorum
# In short: as §2
# velvetleaf = experiment: Test C pre-/postemergence herbicide test; format: in vivo, Abutilon theophrasti
# In short: as §2
# waterhemp = experiment: Test C pre-/postemergence herbicide test; format: in vivo, Amaranthus rudis
# In short: as §2
# oilseed rape = experiment: Test C pre-/postemergence herbicide test; format: in vivo, Brassica napus
# In short: as §2
# blackgrass = experiment: Test C pre-/postemergence herbicide test; format: in vivo, Alopecurus myosuroides
# In short: as §2
# crabgrass, large = experiment: Test C pre-/postemergence herbicide test; format: in vivo, Digitaria sanguinalis
# In short: as §2
# sedge, umbrella = experiment: Test B flooded paddy test; format: in vivo, Cyperus difformis; conditions: 500 g ai/ha, Flood; scale of 0 to 100 where 0 is no effect and 100 is complete control
# In short: as §1
# ducksalad = experiment: Test B flooded paddy test; format: in vivo, Heteranthera limosa; conditions: 500 g ai/ha, Flood; scale of 0 to 100 where 0 is no effect and 100 is complete control
# In short: as §1
# corn = experiment: Test A pre-/postemergence herbicide test; format: in vivo, Zea mays; conditions: Postemergence
# In short: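 Approximately 10 days after treatment in the greenhouse, plants were compared with untreated controls and given a 0–100 visual injury rating. Applications: preemergence directed soil spray; postemergence on 2–10 cm plants at the one- to two-leaf stage.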
# barnyardgrass = experiment: Test B flooded paddy test; format: in vivo, Echinochloa crus-galli; conditions: 500 g ai/ha, Flood; scale of 0 to 100 where 0 is no effect and 100 is complete control
# In short: as §1
# [1] = Postemergence, 31 g ai/ha, scale 0 to 100 (0 no effect, 100 complete control)
# [2] = Postemergence, 62 g ai/ha, scale 0 (no effect) to 100 (complete control)
# [3] = Postemergence, 125 g ai/ha, scale 0 to 100 (0 no effect, 100 complete control)
# [4] = Postemergence, 250 g ai/ha, scale 0 to 100 (0 no effect, 100 complete control)
# [5] = Preemergence, 31 g ai/ha, scale 0 to 100, 0 is no effect and 100 is complete control
# [6] = Preemergence, 62 g ai/ha, scale 0 to 100 (0 no effect, 100 complete control)
# [7] = Preemergence, 125 g ai/ha, scale 0 to 100 (0 no effect, 100 complete control)
# [8] = 125 g ai/ha, 0 to 100 scale, 0 is no effect, 100 is complete control
# [9] = Preemergence, 62 g ai/ha, scale 0 to 100
smiles,measurement,setting,value
O=C1NCC(c2cc(F)cc(F)c2)C1C(=O)Nc1cccc(F)c1F (racemic) [Compound 279],"Plant response rating, Rice",rice,10
same,"Plant response rating, Soybean",soybean; [1],40
same,"Plant response rating, Soybean",soybean; [2],10
same,"Plant response rating, Soybean",soybean; [3],0
same,"Plant response rating, Soybean",soybean; [4],10
same,Soybean plant response rating,soybean; [5],0
same,Soybean plant response rating,soybean; [6],0
same,"Plant response rating, Soybean",soybean; [7],0
same,"Plant response rating (scale of 0 to 100), Soybean","soybean; Preemergence, 250 g ai/ha",10
same,"Plant response rating, Ryegrass, Italian","ryegrass, Italian; [1]",0
same,"Plant response rating, Ryegrass, Italian","ryegrass, Italian; [2]",0
same,"Plant response rating, Ryegrass, Italian","ryegrass, Italian; [3]",0
same,"Plant response rating, Ryegrass, Italian","ryegrass, Italian; [4]",0
same,"Ryegrass, Italian plant response rating","ryegrass, Italian; [5]",0
same,"Ryegrass, Italian plant response rating","ryegrass, Italian; [6]",10
same,"Plant response rating, Ryegrass, Italian","ryegrass, Italian; [7]",30
same,"Plant response rating (scale of 0 to 100), Ryegrass, Italian","ryegrass, Italian; Preemergence, 250 g ai/ha",60
same,"Plant response rating, Velvetleaf",velvetleaf; [1],0
same,"Plant response rating, Velvetleaf",velvetleaf; [2],10
same,"Plant response rating, Velvetleaf",velvetleaf; [3],10
same,"Plant response rating, Velvetleaf",velvetleaf; [4],10
same,Velvetleaf plant response rating,velvetleaf; [5],0
same,Velvetleaf plant response rating,velvetleaf; [6],0
same,"Plant response rating, Velvetleaf",velvetleaf; [7],0
same,"Plant response rating (scale of 0 to 100), Velvetleaf","velvetleaf; Preemergence, 250 g ai/ha",30
same,"Plant response rating, Waterhemp",waterhemp; [1],5
same,"Plant response rating, Waterhemp",waterhemp; [2],20
same,"Plant response rating, Waterhemp",waterhemp; [3],15
same,"Plant response rating, Waterhemp",waterhemp; [4],15
same,Waterhemp plant response rating,waterhemp; [5],0
same,Waterhemp plant response rating,waterhemp; [6],15
same,"Plant response rating, Waterhemp",waterhemp; [7],55
same,"Plant response rating (scale of 0 to 100), Waterhemp","waterhemp; Preemergence, 250 g ai/ha",80
same,"Plant response rating, Oilseed Rape",oilseed rape; [1],0
same,"Plant response rating, Oilseed Rape",oilseed rape; [2],30
same,"Plant response rating, Oilseed Rape",oilseed rape; [3],0
same,"Plant response rating, Oilseed Rape",oilseed rape; [4],0
same,Oilseed Rape plant response rating,oilseed rape; [5],0
same,Oilseed Rape plant response rating,oilseed rape; [6],0
same,"Plant response rating, Oilseed Rape",oilseed rape; [7],30
same,"Plant response rating (scale of 0 to 100), Oilseed Rape","oilseed rape; Preemergence, 250 g ai/ha",60
same,"Plant response rating, Blackgrass",blackgrass; [1],0
same,"Plant response rating, Blackgrass",blackgrass; [2],0
same,"Plant response rating, Blackgrass",blackgrass; [3],0
same,"Plant response rating, Blackgrass",blackgrass; [4],0
same,Blackgrass plant response rating,blackgrass; [5],0
same,Blackgrass plant response rating,blackgrass; [6],0
same,"Plant response rating, Blackgrass",blackgrass; [7],30
same,"Plant response rating (scale of 0 to 100), Blackgrass","blackgrass; Preemergence, 250 g ai/ha",85
same,"Plant response rating, Crabgrass, Large","crabgrass, large; [1]",25
same,"Plant response rating, Crabgrass, Large","crabgrass, large; [2]",65
same,"Plant response rating, Crabgrass, Large","crabgrass, large; [3]",70
same,"Plant response rating, Crabgrass, Large","crabgrass, large; [4]",80
same,"Crabgrass, Large plant response rating","crabgrass, large; [5]",95
same,"Crabgrass, Large plant response rating","crabgrass, large; [6]",95
same,"Plant response rating, Crabgrass, Large","crabgrass, large; [7]",98
same,"Plant response rating (scale of 0 to 100), Crabgrass, Large","crabgrass, large; Preemergence, 250 g ai/ha",100
same,"Plant response rating, Sedge, Umbrella","sedge, umbrella",0
same,"Plant response rating, Ducksalad",ducksalad,100
same,"Plant response rating, Corn",corn; [8],40
same,"Plant response rating, Corn","corn; 500 g ai/ha, 0 to 100 scale (0 no effect, 100 complete control)",70
same,"Plant response rating, Barnyardgrass",barnyardgrass,75
O=C1NCC(c2cccc(OC(F)F)c2)C1C(=O)Nc1ccccc1F (centres unmarked) [Compound 223],"Plant response rating, Rice",rice,0
same,"Plant response rating, Soybean",soybean; [1],10
same,"Plant response rating, Soybean",soybean; [2],0
same,"Plant response rating, Soybean",soybean; [3],0
same,"Plant response rating, Soybean",soybean; [4],30
same,Soybean plant response rating,soybean; [5],0
same,Soybean plant response rating,soybean; [6],5
same,"Plant response rating, Soybean",soybean; [7],5
same,"Plant response rating (scale of 0 to 100), Soybean","soybean; Preemergence, 250 g ai/ha",15
same,"Plant response rating, Ryegrass, Italian","ryegrass, Italian; [1]",0
same,"Plant response rating, Ryegrass, Italian","ryegrass, Italian; [2]",0
same,"Plant response rating, Ryegrass, Italian","ryegrass, Italian; [3]",0
same,"Plant response rating, Ryegrass, Italian","ryegrass, Italian; [4]",0
same,"Ryegrass, Italian plant response rating","ryegrass, Italian; [5]",0
same,"Ryegrass, Italian plant response rating","ryegrass, Italian; [6]",0
same,"Plant response rating, Ryegrass, Italian","ryegrass, Italian; [7]",10
same,"Plant response rating (scale of 0 to 100), Ryegrass, Italian","ryegrass, Italian; Preemergence, 250 g ai/ha",15
same,"Plant response rating, Velvetleaf",velvetleaf; [1],0
same,"Plant response rating, Velvetleaf",velvetleaf; [2],0
same,"Plant response rating, Velvetleaf",velvetleaf; [3],0
same,"Plant response rating, Velvetleaf",velvetleaf; [4],20
same,Velvetleaf plant response rating,velvetleaf; [5],0
same,Velvetleaf plant response rating,velvetleaf; [6],0
same,"Plant response rating, Velvetleaf",velvetleaf; [7],25
same,"Plant response rating (scale of 0 to 100), Velvetleaf","velvetleaf; Preemergence, 250 g ai/ha",35
same,"Plant response rating, Waterhemp",waterhemp; [1],0
same,"Plant response rating, Waterhemp",waterhemp; [2],0
same,"Plant response rating, Waterhemp",waterhemp; [3],10
same,"Plant response rating, Waterhemp",waterhemp; [4],10
same,Waterhemp plant response rating,waterhemp; [5],90
same,Waterhemp plant response rating,waterhemp; [6],0
same,"Plant response rating, Waterhemp",waterhemp; [7],0
same,"Plant response rating (scale of 0 to 100), Waterhemp","waterhemp; Preemergence, 250 g ai/ha",25
same,"Plant response rating, Oilseed Rape",oilseed rape; [1],0
same,"Plant response rating, Oilseed Rape",oilseed rape; [2],0
same,"Plant response rating, Oilseed Rape",oilseed rape; [3],0
same,"Plant response rating, Oilseed Rape",oilseed rape; [4],10
same,Oilseed Rape plant response rating,oilseed rape; [5],0
same,Oilseed Rape plant response rating,oilseed rape; [6],0
same,"Plant response rating, Oilseed Rape",oilseed rape; [7],0
same,"Plant response rating (scale of 0 to 100), Oilseed Rape","oilseed rape; Preemergence, 250 g ai/ha",5
same,"Plant response rating, Blackgrass",blackgrass; [1],0
same,"Plant response rating, Blackgrass",blackgrass; [2],0
same,"Plant response rating, Blackgrass",blackgrass; [3],0
same,"Plant response rating, Blackgrass",blackgrass; [4],0
same,Blackgrass plant response rating,blackgrass; [5],35
same,"Plant response rating, Blackgrass",blackgrass; [9],35
same,"Plant response rating, Blackgrass",blackgrass; [7],85
same,"Plant response rating (scale of 0 to 100), Blackgrass","blackgrass; Preemergence, 250 g ai/ha",85
same,"Plant response rating, Crabgrass, Large","crabgrass, large; [1]",0
same,"Plant response rating, Crabgrass, Large","crabgrass, large; [2]",10
same,"Plant response rating, Crabgrass, Large","crabgrass, large; [3]",55
same,"Plant response rating, Crabgrass, Large","crabgrass, large; [4]",80
same,"Crabgrass, Large plant response rating","crabgrass, large; [5]",85
same,"Crabgrass, Large plant response rating","crabgrass, large; [6]",90
same,"Plant response rating, Crabgrass, Large","crabgrass, large; [7]",95
same,"Plant response rating (scale of 0 to 100), Crabgrass, Large","crabgrass, large; Preemergence, 250 g ai/ha",100
same,"Plant response rating, Sedge, Umbrella","sedge, umbrella",0
same,"Plant response rating, Ducksalad",ducksalad,100
same,"Plant response rating, Corn",corn; [8],0
same,"Corn plant response rating (0 to 100 scale, 0 is no effect, 100 is complete control)",corn; 500 g ai/ha,50
same,"Plant response rating, Barnyardgrass",barnyardgrass,75
O=C1NCC(c2ccc(C(F)(F)F)cc2)C1C(=O)Nc1ccccc1Cl (centres unmarked) [Compound 233],"Plant response rating, Rice",rice,0
same,Soybean plant response rating,soybean; [5],0
same,Soybean plant response rating,soybean; [6],0
same,"Plant response rating, Soybean",soybean; [7],5
same,"Plant response rating (scale of 0 to 100), Soybean","soybean; Preemergence, 250 g ai/ha",0
same,"Ryegrass, Italian plant response rating","ryegrass, Italian; [5]",0
same,"Ryegrass, Italian plant response rating","ryegrass, Italian; [6]",0
same,"Plant response rating, Ryegrass, Italian","ryegrass, Italian; [7]",30
same,"Plant response rating (scale of 0 to 100), Ryegrass, Italian","ryegrass, Italian; Preemergence, 250 g ai/ha",40
same,Velvetleaf plant response rating,velvetleaf; [5],15
same,Velvetleaf plant response rating,velvetleaf; [6],25
same,"Plant response rating, Velvetleaf",velvetleaf; [7],45
same,"Plant response rating (scale of 0 to 100), Velvetleaf","velvetleaf; Preemergence, 250 g ai/ha",45
same,Waterhemp plant response rating,waterhemp; [5],95
same,Waterhemp plant response rating,waterhemp; [6],80
same,"Plant response rating, Waterhemp",waterhemp; [7],85
same,"Plant response rating (scale of 0 to 100), Waterhemp","waterhemp; Preemergence, 250 g ai/ha",95
same,Oilseed Rape plant response rating,oilseed rape; [5],0
same,Oilseed Rape plant response rating,oilseed rape; [6],40
same,"Plant response rating, Oilseed Rape",oilseed rape; [7],80
same,"Plant response rating (scale of 0 to 100), Oilseed Rape","oilseed rape; Preemergence, 250 g ai/ha",85
same,Blackgrass plant response rating,blackgrass; [5],30
same,"Plant response rating, Blackgrass",blackgrass; [9],45
same,"Plant response rating, Blackgrass",blackgrass; [7],60
same,"Plant response rating (scale of 0 to 100), Blackgrass","blackgrass; Preemergence, 250 g ai/ha",90
same,"Crabgrass, Large plant response rating","crabgrass, large; [5]",90
same,"Crabgrass, Large plant response rating","crabgrass, large; [6]",90
same,"Plant response rating, Crabgrass, Large","crabgrass, large; [7]",90
same,"Plant response rating (scale of 0 to 100), Crabgrass, Large","crabgrass, large; Preemergence, 250 g ai/ha",90
same,"Plant response rating, Sedge, Umbrella","sedge, umbrella",0
same,"Plant response rating, Ducksalad",ducksalad,100
same,"Plant response rating, Corn",corn; [8],20
same,"Corn plant response rating (0 to 100 scale, 0 is no effect, 100 is complete control)",corn; 500 g ai/ha,20
same,"Plant response rating, Barnyardgrass",barnyardgrass,60
